A short description of data set [1]: Lyophilisation Solubility Assay (LYSA). The data set is classed as physicochemical. To be noted: aqueous buffer, thermodynamic from solid; 0.05 M phosphate buffer, pH 6.5; * = detection limit. The method, then: The solubility of compounds of present invention was assessed by LYSA assay. Samples were prepared in duplicate from 10 mM DMSO stock solutions (20 μL) diluted in 30 μL pure DMSO. After evaporation of DMSO with a centrifugal vacuum evaporator, the residue was dissolved in 0.05 M phosphate buffer (150 μL, pH 6.5), stirred for one hour and shook for two hours. After one night, the solution was filtered using a microtiter filter plate. Then the filtrate and its 1/10 dilution were analyzed by HPLC-UV. In addition a four-point calibration curve was prepared from the 10 mM stock solutions and used for the solubility determination of the compounds.

A short description of data set [2]: Cytotoxicity assay (HepG2, CellTiter-Blue). The data set is classed as cell-based. To be noted: human; HepG2 cells, 3 days treatment; * = detection limit. The method, then:
The cytotoxicity of compounds of present invention was assessed by HepG2 assay. HepG2 cells (ATCC HB-8065™) were seeded into 96-well plates (1.2×10^4 cells per well) and treated with compounds for 3 days, cell viability was measured at day 3 post compound treatment using the CellTiter-Blue® Cell Viability Assay (Promega, Cat. No. G8082). 20 μL of Cell titer blue buffer were added to each well of the cells, incubated for 3 hours at 37° C., and the fluorescence value was measured by a plate reader (Molecular Device SpectraMax M2). The CC50 value of each compound is plotted with GraphPad Prism using four parameter logistic equation.

The next data set concerns E. coli (BW25113). The data set can be described thus: 50% growth inhibitory concentration (IC50) determination assay, E. coli. The data set is classed as cell-based. Particulars: Escherichia coli, BW25113; growth inhibition, Iso-Sensitest broth, OD 600 nm over 16 h; read-out: IC50 (μM) E. coli K12 BW25113. The method, boiled down: (§1)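 Two-fold dilutions (50 to 0.097 μM final) tested in Iso-Sensitest broth at ~5×10^5 CFU/mL, 35±2 °C. OD600 read every 20 min over 16 h; IC50 derived from growth inhibition during logarithmic phase.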

The test system of data set [3] is K. pneumoniae (ATCC10031). The data set can be described thus: 50% growth inhibitory concentration (IC50) determination assay, K. pneumoniae. The data set is classed as cell-based. Particulars: Klebsiella pneumoniae, ATCC10031; growth inhibition, Iso-Sensitest broth, OD 600 nm over 16 h; * = detection limit; read-out: IC50 (μM) K. pneumoniae ATCC10031. A digest of the protocol:
as §1

For another data set, the system named is E. coli (ATCC 25922). The data set can be described thus: Minimal Inhibitory Concentration (MIC) assay. To be noted: Escherichia coli, ATCC25922; CAMHB, 20 hours at 35° C.; read-out: MIC (μg/mL) E. coli ATCC 25922. The data set is classed as cell-based. The method, then: The in vitro potency of compounds to inhibit E. coli (ATCC 25922) growth was assessed by MIC (Minimal Inhibitory Concentration) assay. Samples were prepared from 10 mM DMSO stock solutions. After serial 2-fold dilution in DMSO in a master plate (Greiner, Cat No: 651201), 180 μL sterile distilled water was added to 20 μL each aliquot of the samples. Then 10 μL diluted compounds were transferred into a new assay plate (Costar, 3599).
The growth medium […] Mueller Hinton Broth (CAMHB) was prepared by adding the 20 mg per liter CaCl2 and 20 mg per liter MgCl2 into the MHB medium (Jianglai Company, sterilized).
Vials of each of the test microorganisms were maintained frozen in the vapor phase of a liquid nitrogen freezer. Took out the bacteria E. coli ATCC 25922 (KWIKSTIK, 0335K) from liquid nitrogen freezer, thawed it in room temperature, and diluted the bacterial in the CAMHB medium to achieve a final inoculum of 5×10^5 CFU/mL, 90 μL CAMHB with bacteria was dispensed to the assay plate and pipetted 5 times.
Then the assay plates were incubated for 20 hours at 35° C. in ambient air. Following incubation, the MIC (μg/mL), the lowest concentration of drug that inhibits visible growth of the microorganism was read and recorded throw the microscope.

In brackets after ≈: the same amount, converted by molar mass.

In general, solubility (thermodynamic) refers to solubility found after equilibrating the solid with the medium. The CC50 is the concentration that lowers cell viability or growth by half. A higher CC50 goes with lower toxicity to the cells. In the case of `CCNc1cc(F)cc2c1[nH]c1ncc(-c3cnc(NC4CCNC4)nc3)c(-n3ccc(C(F)(F)F)n3)c12` (centres unmarked) [Example 1.24, N-Ethyl-6-fluoro-3-[2-(pyrrolidin-3-ylamino)pyrimidin-5-yl]-4-[3-(trifluoromethyl)pyrazol-1-yl]-9H-pyrido[2,3-b]indol-8-amine], in data set [1], the thermodynamic solubility was found to be 8.3 µg/mL (≈ 15.8 µM). Besides, the CC50 at 3 days in data set [2] worked out at 11800 nM.

In general, IC50 refers to the concentration needed to halve the response being measured. Take `CCNc1cc(F)cc2c1[nH]c1ncc(-c3cncc(C#N)c3)c(-n3cc(CN)c(C(F)(F)F)n3)c12` [Example 1.26, 5-[4-[4-(Aminomethyl)-3-(trifluoromethyl)pyrazol-1-yl]-8-(ethylamino)-6-fluoro-9H-pyrido[2,3-b]indol-3-yl]pyridine-3-carbonitrile]: the IC50 in the data set with E. coli (BW25113) was 0.374 µM; in data set [3], ≤ 0.098 µM. The MIC in the data set with E. coli (ATCC 25922) was 0.618 µg/mL (≈ 1.25 µM). In data set [1], this molecule gave a solubility (thermodynamic) of 32.5 µg/mL (≈ 65.7 µM).

Take `CCNc1cc(F)cc2c1[nH]c1ncc(-c3cnc(OC)nc3)c(-n3nc(C#N)c4c3CNCC4)c12` [Example 1.39, 1-[8-(Ethylamino)-6-fluoro-3-(2-methoxypyrimidin-5-yl)-9H-pyrido[2,3-b]indol-4-yl]-4,5,6,7-tetrahydropyrazolo[3,4-c]pyridine-3-carbonitrile]: the IC50 is 2.37 µM in the data set with E. coli (BW25113) and ≤ 0.098 µM in data set [3]. The same molecule gave a thermodynamic solubility in data set [1] of 42 µg/mL (≈ 86.9 µM). Further, in data set [2], the CC50 at 3 days was found to be 49000 nM.

Take `CCNc1cc(F)cc2c1[nH]c1ncc(-c3cnc(CN)nc3)c(-n3ccc(C(F)(F)F)n3)c12` [Example 1.46, 3-[2-(Aminomethyl)pyrimidin-5-yl]-N-ethyl-6-fluoro-4-[3-(trifluoromethyl)pyrazol-1-yl]-9H-pyrido[2,3-b]indol-8-amine]: the IC50 was 0.77 µM with E. coli (BW25113) and ≤ 0.098 µM in data set [3]. In data set [1], this molecule came in with a solubility (thermodynamic) of 23 µg/mL (≈ 48.9 µM). The same molecule came in with a CC50 at 3 days in data set [2] of 27400 nM.

Consider `CNc1c(F)c(F)cc2c1[nH]c1ncc(-c3cncc(C#N)c3)c(-n3cc(CN)c(C(F)(F)F)n3)c12` [Example 1.49, 5-[4-[4-(Aminomethyl)-3-(trifluoromethyl)pyrazol-1-yl]-6,7-difluoro-8-(methylamino)-9H-pyrido[2,3-b]indol-3-yl]pyridine-3-carbonitrile], for which the IC50 in the data set with E. coli (BW25113) stood at 0.698 µM; in data set [3], 0.098 µM. Moreover, the MIC in the data set with E. coli (ATCC 25922) stood at 0.359 µg/mL (≈ 0.72 µM). Further, the solubility (thermodynamic) in data set [1] worked out at 14 µg/mL (≈ 28.1 µM). In data set [2], this molecule registered a CC50 at 3 days of 12800 nM.

As to `CCNc1cc(F)cc2c1[nH]c1ncc(-c3cnc(OC4CCNCC4)nc3)c(-n3ccc(C(F)(F)F)n3)c12` [Example 1.53, N-ethyl-6-fluoro-3-[2-(4-piperidyloxy)pyrimidin-5-yl]-4-[3-(trifluoromethyl)pyrazol-1-yl]-9H-pyrido[2,3-b]indol-8-amine], the figures for the IC50 (in the data set with E. coli (BW25113); in data set [3]) were 1.29 µM and 0.121 µM, respectively. In data set [1], the solubility (thermodynamic) amounted to 21 µg/mL (≈ 38.9 µM).

In turn, `CCNc1cc(F)cc2c1[nH]c1ncc(-c3cnc(C4(C(=O)O)CC4)nc3)c(-n3ccc(C(F)(F)F)n3)c12` [Example 2.01, 1-[5-[8-(Ethylamino)-6-fluoro-4-[3-(trifluoromethyl)pyrazol-1-yl]-9H-pyrido[2,3-b]indol-3-yl]pyrimidin-2-yl]cyclopropanecarboxylic Acid] had a thermodynamic solubility in data set [1] of 67 µg/mL (≈ 128 µM). The molecule also yielded a CC50 at 3 days in data set [2] of 38600 nM.

`CNc1cc(F)cc2c1[nH]c1ncc(-c3cnc(C4(C(=O)O)CC4)nc3)c(-n3ccc(C(F)(F)F)n3)c12` [Example 2.02, 1-[5-[6-Fluoro-8-(methylamino)-4-[3-(trifluoromethyl)pyrazol-1-yl]-9H-pyrido[2,3-b]indol-3-yl]pyrimidin-2-yl]cyclopropanecarboxylic acid]: the IC50 in the data set on E. coli (BW25113) was 1.67 µM; in data set [3] it was 0.254 µM. In addition, in data set [1], the solubility (thermodynamic) is 148 µg/mL (≈ 289 µM). In addition, the CC50 at 3 days in data set [2] is 62600 nM.

In data set [1], `CCNc1cc(F)cc2c1[nH]c1ncc(-c3cnc(NCC(C)(C)C(=O)O)nc3)c(-n3ccc(C(F)(F)F)n3)c12` [Example 2.05, 3-[[5-[8-(Ethylamino)-6-fluoro-4-[3-(trifluoromethyl)pyrazol-1-yl]-9H-pyrido[2,3-b]indol-3-yl]pyrimidin-2-yl]amino]-2,2-dimethyl-propanoic acid] returned a solubility (thermodynamic) of 24 µg/mL (≈ 43.1 µM). The molecule further returned a CC50 at 3 days in data set [2] of 27600 nM.

On to `CNc1cc(F)cc2c1[nH]c1nc(Oc3cnc(C)nc3)nc(N3C[C@H]4C[C@@H]3C[C@H]4N)c12` [GP-6, reference compound], for which the IC50 in the data set on E. coli (BW25113) is 0.17 µM; in data set [3], ≤ 0.098 µM. Further, in the data set with E. coli (ATCC 25922), the MIC was found to be 0.127 µg/mL (≈ 0.292 µM). The thermodynamic solubility in data set [1] is < 1 µg/mL. This molecule also returned a CC50 at 3 days in data set [2] of 5600 nM.

Values taken from patent US20210309658A1, “ARYL COMPOUNDS FOR THE TREATMENT AND PROPHYLAXIS OF BACTERIAL INFECTION” (Hoffmann-La Roche Inc., priority 2018, published 2021).
